According to the supplement of paper PMC12463676, “Small-molecule dissolution of stress granules by redox modulation benefits ALS models” (Nature Chemical Biology, 2025):
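Also: each temperature applied for 3 min, abundance score taken as mean log2 fold change at the two lowest temperatures, z-score obtained by mean subtraction and division by SD.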

Chain of UniProt Q5VZK9 (Q5VZK9 whole entry): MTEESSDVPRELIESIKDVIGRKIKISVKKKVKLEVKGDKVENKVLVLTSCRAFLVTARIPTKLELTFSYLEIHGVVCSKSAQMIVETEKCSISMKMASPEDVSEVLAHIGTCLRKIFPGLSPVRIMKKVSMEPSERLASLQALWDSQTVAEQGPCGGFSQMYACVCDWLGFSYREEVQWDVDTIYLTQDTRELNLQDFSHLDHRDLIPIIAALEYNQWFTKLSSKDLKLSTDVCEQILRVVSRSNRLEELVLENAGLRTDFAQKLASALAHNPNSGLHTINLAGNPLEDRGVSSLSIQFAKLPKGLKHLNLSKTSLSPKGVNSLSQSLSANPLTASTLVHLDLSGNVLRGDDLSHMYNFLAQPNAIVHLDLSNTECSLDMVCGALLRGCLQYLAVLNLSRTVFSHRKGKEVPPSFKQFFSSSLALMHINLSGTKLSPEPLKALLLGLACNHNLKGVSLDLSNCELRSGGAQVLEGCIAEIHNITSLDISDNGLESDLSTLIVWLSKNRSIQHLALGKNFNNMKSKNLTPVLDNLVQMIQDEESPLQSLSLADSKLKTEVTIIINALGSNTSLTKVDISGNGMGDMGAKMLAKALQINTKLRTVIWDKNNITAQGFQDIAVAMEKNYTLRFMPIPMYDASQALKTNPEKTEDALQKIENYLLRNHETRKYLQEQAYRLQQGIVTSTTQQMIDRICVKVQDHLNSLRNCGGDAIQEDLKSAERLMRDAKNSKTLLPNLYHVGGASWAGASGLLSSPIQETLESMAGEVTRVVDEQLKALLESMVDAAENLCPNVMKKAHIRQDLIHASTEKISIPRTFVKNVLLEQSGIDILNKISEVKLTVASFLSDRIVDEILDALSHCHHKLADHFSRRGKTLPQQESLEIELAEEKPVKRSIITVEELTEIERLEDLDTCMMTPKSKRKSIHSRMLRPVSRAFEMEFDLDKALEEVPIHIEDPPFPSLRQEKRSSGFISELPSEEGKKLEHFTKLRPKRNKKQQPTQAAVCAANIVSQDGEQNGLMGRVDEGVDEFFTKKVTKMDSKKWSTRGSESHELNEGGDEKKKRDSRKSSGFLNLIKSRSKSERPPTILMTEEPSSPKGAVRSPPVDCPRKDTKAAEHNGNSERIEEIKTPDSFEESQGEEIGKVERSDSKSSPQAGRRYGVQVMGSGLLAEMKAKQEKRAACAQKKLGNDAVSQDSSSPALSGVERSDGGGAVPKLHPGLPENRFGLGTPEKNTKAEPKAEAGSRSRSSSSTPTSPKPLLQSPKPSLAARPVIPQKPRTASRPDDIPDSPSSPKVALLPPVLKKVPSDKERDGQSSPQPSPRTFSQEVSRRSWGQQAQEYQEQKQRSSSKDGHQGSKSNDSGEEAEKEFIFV
Chain of UniProt P31749 (P31749 whole entry): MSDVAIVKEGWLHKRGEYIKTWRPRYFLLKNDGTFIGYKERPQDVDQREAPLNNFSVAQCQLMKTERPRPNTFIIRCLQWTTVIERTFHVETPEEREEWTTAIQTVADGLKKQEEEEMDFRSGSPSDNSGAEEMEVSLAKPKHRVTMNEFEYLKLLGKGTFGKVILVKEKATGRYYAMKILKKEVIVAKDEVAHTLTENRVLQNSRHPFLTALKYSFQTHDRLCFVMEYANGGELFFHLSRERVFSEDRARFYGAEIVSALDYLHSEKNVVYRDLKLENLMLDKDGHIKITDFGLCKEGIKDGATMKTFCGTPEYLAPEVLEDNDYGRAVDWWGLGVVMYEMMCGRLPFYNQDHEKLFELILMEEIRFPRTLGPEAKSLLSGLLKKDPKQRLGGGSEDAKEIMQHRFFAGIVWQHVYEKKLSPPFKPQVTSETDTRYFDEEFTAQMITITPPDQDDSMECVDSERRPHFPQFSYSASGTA
Chain of UniProt P31641 (P31641 whole entry): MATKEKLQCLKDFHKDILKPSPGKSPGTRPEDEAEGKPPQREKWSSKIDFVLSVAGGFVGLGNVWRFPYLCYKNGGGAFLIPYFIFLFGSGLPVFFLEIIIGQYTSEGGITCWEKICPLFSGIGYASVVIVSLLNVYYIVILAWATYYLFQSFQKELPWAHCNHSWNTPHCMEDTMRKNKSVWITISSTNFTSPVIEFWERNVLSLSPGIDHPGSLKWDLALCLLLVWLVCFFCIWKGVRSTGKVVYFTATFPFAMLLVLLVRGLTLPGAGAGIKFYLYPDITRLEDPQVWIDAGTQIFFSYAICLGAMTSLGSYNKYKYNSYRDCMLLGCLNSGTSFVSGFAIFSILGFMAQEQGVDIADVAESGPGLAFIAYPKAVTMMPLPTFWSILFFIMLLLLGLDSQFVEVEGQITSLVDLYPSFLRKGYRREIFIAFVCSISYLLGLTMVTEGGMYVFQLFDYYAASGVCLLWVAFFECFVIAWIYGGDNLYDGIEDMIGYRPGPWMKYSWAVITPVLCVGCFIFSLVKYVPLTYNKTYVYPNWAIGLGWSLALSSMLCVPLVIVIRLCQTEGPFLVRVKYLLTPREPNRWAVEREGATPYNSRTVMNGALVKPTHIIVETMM
Chain of UniProt Q9Y512 (Q9Y512 whole entry): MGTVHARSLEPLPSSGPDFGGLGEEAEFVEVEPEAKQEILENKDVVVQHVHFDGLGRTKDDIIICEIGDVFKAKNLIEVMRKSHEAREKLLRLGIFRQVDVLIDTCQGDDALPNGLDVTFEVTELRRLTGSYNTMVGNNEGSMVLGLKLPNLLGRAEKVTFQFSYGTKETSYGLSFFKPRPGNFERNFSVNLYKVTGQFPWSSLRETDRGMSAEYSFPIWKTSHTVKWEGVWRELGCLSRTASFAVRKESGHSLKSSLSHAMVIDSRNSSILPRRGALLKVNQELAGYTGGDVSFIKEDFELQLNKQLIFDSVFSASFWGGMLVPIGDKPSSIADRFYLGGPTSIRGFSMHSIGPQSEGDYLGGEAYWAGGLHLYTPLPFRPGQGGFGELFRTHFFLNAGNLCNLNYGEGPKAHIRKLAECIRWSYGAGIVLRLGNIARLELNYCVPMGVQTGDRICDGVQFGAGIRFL
Chain of UniProt Q86WJ1 (Q86WJ1 whole entry): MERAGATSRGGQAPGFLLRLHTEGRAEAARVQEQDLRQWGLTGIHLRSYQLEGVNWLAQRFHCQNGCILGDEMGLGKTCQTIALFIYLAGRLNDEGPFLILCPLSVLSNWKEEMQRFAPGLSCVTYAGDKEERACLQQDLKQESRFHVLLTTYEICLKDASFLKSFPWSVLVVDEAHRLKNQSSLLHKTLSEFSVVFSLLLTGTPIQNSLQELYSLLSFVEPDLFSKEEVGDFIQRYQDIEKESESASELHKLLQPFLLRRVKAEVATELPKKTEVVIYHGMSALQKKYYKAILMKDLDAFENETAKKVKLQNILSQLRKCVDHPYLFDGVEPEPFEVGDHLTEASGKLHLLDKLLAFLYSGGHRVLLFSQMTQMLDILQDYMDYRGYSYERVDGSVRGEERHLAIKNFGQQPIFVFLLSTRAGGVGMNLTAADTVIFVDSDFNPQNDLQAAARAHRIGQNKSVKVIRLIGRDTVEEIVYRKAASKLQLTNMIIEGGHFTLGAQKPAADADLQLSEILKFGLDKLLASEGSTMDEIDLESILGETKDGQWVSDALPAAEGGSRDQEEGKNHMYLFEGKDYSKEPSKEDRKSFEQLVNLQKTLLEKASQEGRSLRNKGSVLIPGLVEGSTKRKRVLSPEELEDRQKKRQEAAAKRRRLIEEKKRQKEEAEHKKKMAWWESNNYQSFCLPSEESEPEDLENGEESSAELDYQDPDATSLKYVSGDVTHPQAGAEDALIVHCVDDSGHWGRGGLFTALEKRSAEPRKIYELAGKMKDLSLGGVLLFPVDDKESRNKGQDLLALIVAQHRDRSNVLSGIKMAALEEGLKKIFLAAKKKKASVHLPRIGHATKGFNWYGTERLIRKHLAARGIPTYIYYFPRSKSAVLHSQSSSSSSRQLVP
Chain of UniProt Q9H9T3 (Q9H9T3 whole entry): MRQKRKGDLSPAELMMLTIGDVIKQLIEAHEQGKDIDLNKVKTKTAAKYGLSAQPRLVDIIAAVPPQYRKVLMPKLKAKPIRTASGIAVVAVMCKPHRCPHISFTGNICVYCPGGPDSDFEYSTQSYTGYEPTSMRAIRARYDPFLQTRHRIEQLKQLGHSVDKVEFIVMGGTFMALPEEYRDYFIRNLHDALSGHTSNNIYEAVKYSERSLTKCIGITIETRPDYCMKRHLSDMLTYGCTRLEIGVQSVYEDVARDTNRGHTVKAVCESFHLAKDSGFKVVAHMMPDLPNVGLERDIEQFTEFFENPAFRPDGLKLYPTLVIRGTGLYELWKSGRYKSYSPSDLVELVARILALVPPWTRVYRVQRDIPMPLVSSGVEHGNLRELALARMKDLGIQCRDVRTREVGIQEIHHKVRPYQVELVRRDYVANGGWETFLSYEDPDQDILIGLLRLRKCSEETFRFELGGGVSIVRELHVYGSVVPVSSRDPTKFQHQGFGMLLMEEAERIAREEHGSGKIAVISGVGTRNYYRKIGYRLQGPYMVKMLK
Chain of UniProt Q5T4F4 (Q5T4F4 whole entry): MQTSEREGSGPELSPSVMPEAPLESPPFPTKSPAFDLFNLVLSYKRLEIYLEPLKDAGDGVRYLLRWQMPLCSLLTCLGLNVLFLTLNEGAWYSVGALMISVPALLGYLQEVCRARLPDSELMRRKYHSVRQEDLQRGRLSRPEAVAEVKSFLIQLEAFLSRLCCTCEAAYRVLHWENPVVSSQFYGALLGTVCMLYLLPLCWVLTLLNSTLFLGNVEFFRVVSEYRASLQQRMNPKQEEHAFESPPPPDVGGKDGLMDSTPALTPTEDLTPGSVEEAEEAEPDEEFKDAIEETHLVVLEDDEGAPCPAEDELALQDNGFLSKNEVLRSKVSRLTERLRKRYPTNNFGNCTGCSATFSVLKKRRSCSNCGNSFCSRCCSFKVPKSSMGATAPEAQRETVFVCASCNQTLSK
Chain of UniProt Q5VUM1 (Q5VUM1 whole entry): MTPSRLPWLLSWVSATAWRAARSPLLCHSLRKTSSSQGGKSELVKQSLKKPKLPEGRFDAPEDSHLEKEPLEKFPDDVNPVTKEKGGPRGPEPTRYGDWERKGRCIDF
Chain of UniProt Q9UBI6 (Q9UBI6 whole entry): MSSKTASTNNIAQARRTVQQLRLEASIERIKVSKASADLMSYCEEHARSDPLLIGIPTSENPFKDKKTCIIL

What follows are targets tested with NC(=O)CCCCC1CCSS1 [lipoamide] (assay: thermal stability z-score vs DMSO; higher = more thermally stabilized by treatment). Conditions: HeLa; lipoamide concentration 100 µM; arsenate co-treatment: 1 mM arsenate 1 h.
Experimental: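 Cellular thermal proteome profiling in HeLa cells. Cells were treated with 100 µM lipoamide for 1 h, with or without 1 mM arsenate for a further 1 h, then heated to ten temperatures (37-66.3 °C), and soluble protein was quantified by TMT mass spectrometry relative to 0.1% DMSO controls. The thermal stability score (sum of log2 fold changes minus the abundance score) was transformed to a z-score; mean of n = 3 experiments.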
In the case of EPHA5 (UniProt P54756), the thermal stability z-score is reported as 0.8. FKBP9 (UniProt O95302) showed a thermal stability z-score of -3.58. Target MRPL37 (UniProt Q9BZE1) has a thermal stability z-score of -0.398. For TTC37 (UniProt Q6PGP7), the thermal stability z-score was -0.601. CD47 (UniProt Q08722) gave a thermal stability z-score of 2.42. ELP3 (UniProt Q9H9T3) was tested, and the thermal stability z-score was 0.0482. FXR2 (UniProt P51116) showed a thermal stability z-score of 0.0778. For IFRD2 (UniProt Q12894), the thermal stability z-score was 0.798. WDR33 (UniProt Q9C0J8) was tested, and the thermal stability z-score was 0.0589. With UBE2L3 (UniProt P68036) the thermal stability z-score was 0.00366. Target QSER1 (UniProt Q2KHR3) has a thermal stability z-score of -0.147. With NAPRT (UniProt Q6XQN6) the thermal stability z-score was -0.379. LRRC16A (UniProt Q5VZK9) was tested, and the thermal stability z-score was 0.276. For CHD1L (UniProt Q86WJ1), the thermal stability z-score was -0.114. Work on ZFYVE27 (UniProt Q5T4F4) yielded a thermal stability z-score of -0.0642. With AKT1 (UniProt P31749) the thermal stability z-score was -0.698. In the case of GNG12 (UniProt Q9UBI6), the thermal stability z-score is reported as 1.21. With SAMM50 (UniProt Q9Y512) the thermal stability z-score was 0.182. ARHGAP17 (UniProt Q68EM7) was tested, and the thermal stability z-score was 0.0634. GGH (UniProt Q92820) gave a thermal stability z-score of 0.661. CBL (UniProt P22681) showed a thermal stability z-score of 0.255. Target BTF3 (UniProt P20290) has a thermal stability z-score of 0.457. With SLC6A6 (UniProt P31641) the thermal stability z-score was -0.428. For ADPRHL2 (UniProt Q9NX46), the thermal stability z-score was 0.435. GBF1 (UniProt Q92538) showed a thermal stability z-score of -0.598. SDHAF4 (UniProt Q5VUM1) showed a thermal stability z-score of 0.0401. For CDIPT (UniProt O14735), the thermal stability z-score was 1.05. ZCRB1 (UniProt Q8TBF4) gave a thermal stability z-score of 0.506. In the case of GABPB1 (UniProt Q06547), the thermal stability z-score is reported as 0.17. Target LSG1 (UniProt Q9H089) has a thermal stability z-score of -0.18. Target TNPO2 (UniProt O14787) has a thermal stability z-score of -1.26. UPP1 (UniProt Q16831) showed a thermal stability z-score of -0.122. For PSMD11 (UniProt O00231), the thermal stability z-score was -0.641. GPR108 (UniProt Q9NPR9) showed a thermal stability z-score of 0.455. With ECE2 (UniProt P0DPD6) the thermal stability z-score was -0.0621. Target DEGS1 (UniProt O15121) has a thermal stability z-score of -0.756.

Same assay, conditions: HeLa; lipoamide concentration 100 µM; arsenate co-treatment: none
YTHDF2 (UniProt Q9Y5A9) gave a thermal stability z-score of -0.108. For HDAC1 (UniProt Q13547), the thermal stability z-score was 3.56. Work on DIEXF (UniProt Q68CQ4) yielded a thermal stability z-score of 0.0895. Target GTPBP1 (UniProt O00178) has a thermal stability z-score of -0.107. For UBE2B (UniProt P63146), the thermal stability z-score was -0.354. RPRD1A (UniProt Q96P16) showed a thermal stability z-score of -0.0762. In the case of TTC28 (UniProt Q96AY4), the thermal stability z-score is reported as -0.0784. In the case of PMS2 (UniProt P54278), the thermal stability z-score is reported as -0.101. Work on PRPF19 (UniProt Q9UMS4) yielded a thermal stability z-score of 0.686. In the case of WEE1 (UniProt P30291), the thermal stability z-score is reported as 0.206. STK11IP (UniProt Q8N1F8) gave a thermal stability z-score of -0.512. In the case of SBF1 (UniProt O95248), the thermal stability z-score is reported as 0.227. TOM1 (UniProt O60784) showed a thermal stability z-score of -0.536. LRCH1 (UniProt Q9Y2L9) gave a thermal stability z-score of 0.0529. In the case of SCLY (UniProt Q96I15), the thermal stability z-score is reported as 0.27. Work on WWC2 (UniProt Q6AWC2) yielded a thermal stability z-score of -0.0518. RAP1GAP (UniProt P47736) gave a thermal stability z-score of -0.26. ANKRD27 (UniProt Q96NW4) showed a thermal stability z-score of -0.0854. CCT5 (UniProt P48643) showed a thermal stability z-score of -0.053. SRR (UniProt Q9GZT4) showed a thermal stability z-score of -0.118. In the case of DDX49 (UniProt Q9Y6V7), the thermal stability z-score is reported as -0.359. For RPS3A (UniProt P61247), the thermal stability z-score was 0.114. Work on BAG5 (UniProt Q9UL15) yielded a thermal stability z-score of 0.437. PDE6D (UniProt O43924) gave a thermal stability z-score of 0.515. PPIP5K1 (UniProt Q6PFW1) showed a thermal stability z-score of 0.0968. With TSG101 (UniProt Q99816) the thermal stability z-score was 0.0321. In the case of LAP3 (UniProt P28838), the thermal stability z-score is reported as 0.407. For C9ORF142 (UniProt Q9BUH6), the thermal stability z-score was -0.635. EPHX1 (UniProt P07099) gave a thermal stability z-score of 3.19. In the case of PRKCA (UniProt P17252), the thermal stability z-score is reported as 0.32. For MPDZ (UniProt O75970), the thermal stability z-score was -0.0819. With RABEPK (UniProt Q7Z6M1) the thermal stability z-score was 0.305. Work on VDAC2 (UniProt P45880) yielded a thermal stability z-score of 0.307. With VAPB (UniProt O95292) the thermal stability z-score was 0.415. GOLGA2 (UniProt Q08379) was tested, and the thermal stability z-score was -0.0551. In the case of RPS6KA4 (UniProt O75676), the thermal stability z-score is reported as -0.0905. EPHA5 (UniProt P54756) showed a thermal stability z-score of 0.338. For FKBP9 (UniProt O95302), the thermal stability z-score was -2.22. MRPL37 (UniProt Q9BZE1) showed a thermal stability z-score of -0.403. With TTC37 (UniProt Q6PGP7) the thermal stability z-score was -0.234. CD47 (UniProt Q08722) gave a thermal stability z-score of 1.31. Work on ELP3 (UniProt Q9H9T3) yielded a thermal stability z-score of 0.104. In the case of FXR2 (UniProt P51116), the thermal stability z-score is reported as 0.0347. In the case of IFRD2 (UniProt Q12894), the thermal stability z-score is reported as 0.638. WDR33 (UniProt Q9C0J8) showed a thermal stability z-score of -0.0858. Target UBE2L3 (UniProt P68036) has a thermal stability z-score of -0.189. In the case of QSER1 (UniProt Q2KHR3), the thermal stability z-score is reported as -0.0194. NAPRT (UniProt Q6XQN6) showed a thermal stability z-score of -0.0584. Work on LRRC16A (UniProt Q5VZK9) yielded a thermal stability z-score of 0.0854. In the case of CHD1L (UniProt Q86WJ1), the thermal stability z-score is reported as -0.0149. Target ZFYVE27 (UniProt Q5T4F4) has a thermal stability z-score of -0.19. AKT1 (UniProt P31749) gave a thermal stability z-score of -0.638. For GNG12 (UniProt Q9UBI6), the thermal stability z-score was 1.3. Target SAMM50 (UniProt Q9Y512) has a thermal stability z-score of 0.601. ARHGAP17 (UniProt Q68EM7) showed a thermal stability z-score of 0.493. Work on GGH (UniProt Q92820) yielded a thermal stability z-score of 0.64. For CBL (UniProt P22681), the thermal stability z-score was 0.154. With BTF3 (UniProt P20290) the thermal stability z-score was 0.48. With SLC6A6 (UniProt P31641) the thermal stability z-score was -0.488. With ADPRHL2 (UniProt Q9NX46) the thermal stability z-score was -0.109. Work on GBF1 (UniProt Q92538) yielded a thermal stability z-score of -0.0839. Target SDHAF4 (UniProt Q5VUM1) has a thermal stability z-score of -0.258. CDIPT (UniProt O14735) showed a thermal stability z-score of 0.638. ZCRB1 (UniProt Q8TBF4) gave a thermal stability z-score of 0.194. GABPB1 (UniProt Q06547) showed a thermal stability z-score of 0.498. Work on LSG1 (UniProt Q9H089) yielded a thermal stability z-score of 0.17. Target TNPO2 (UniProt O14787) has a thermal stability z-score of -0.726. In the case of UPP1 (UniProt Q16831), the thermal stability z-score is reported as 0.244. PSMD11 (UniProt O00231) showed a thermal stability z-score of -0.384. For GPR108 (UniProt Q9NPR9), the thermal stability z-score was -0.359. ECE2 (UniProt P0DPD6) gave a thermal stability z-score of 0.0487. In the case of DEGS1 (UniProt O15121), the thermal stability z-score is reported as -1.25.
